Data as given in US20240091226A1, “Forms and Formulations Of A Tyrosine Kinase Non-Receptor 1 (TNK1) Inhibitor” (Sumitomo Pharma Oncology, inc., priority 2021, published 2024).
≈ marks a conversion by molar mass, not a printed value. Entries after “also recorded” stand apart in the source; their conditions may differ.

Columns and labels:
[1] = Kinetic solubility in water, SGF and FaSSIF at 37° C.; type: physicochemical; conditions: for Kinetic solubility in water (in words): Freebase Type E+F as control
Method: Kinetic Solubility. Kinetic solubility of salt leads was measured in water, SGF and FaSSIF to evaluate their solubility and disproportionation risk, using Freebase Type E+F (818718-01-A) as control. […] After centrifugation, supernatants were collected for HPLC and pH tests, and wet cakes were collected for XRPD characterization.

[2] = Two-week solid-state stability (XRPD, HPLC purity); type: physicochemical; conditions: two weeks; for Stress stability / solid-state physical and chemical stability (in words): 25° C./60% RH and 40° C./75% RH (open); for Purity (area %) after storage / Purity vs Initial (%): open
Method: Solid-state Stability. Solid-state stability of Freebase Type E+F (818718-01-A), L-Malate Type B (818718-21-A1) and Mesylate Type A (818718-21-A5) were evaluated under 25° C./60% RH and 40° C./75% RH (open) for two weeks. Stability samples were characterized by XRPD to check any solid form change, and by HPLC to check purity change.

[3] = Hygroscopicity by dynamic vapor sorption (DVS); type: physicochemical; conditions: for Hygroscopicity (%), water uptake: DVS, 25° C./80% RH; for Form Change after DVS: XRPD before and after DVS
Method: Hygroscopicity. DVS isotherm plot was collected at 25° C. to investigate the solid form stability as a function of humidity. All of Freebase Type E+F, L-Malate Type B, Succinate Type B and Mesylate Type A were equilibrated at ambient humidity (70% RH or 80% RH) to prevent form change before testing.
DVS. Dynamic Vapor Sorption (DVS) was measured via a SMS (Surface Measurement Systems) DVS Intrinsic. The relative humidity at 25° C. was calibrated against deliquescence point of LiCl, Mg(NO3)2 and KCl.

[4] = system: Apc^Min+/− mice; experiment: ApcMin mouse efficacy model; type: in vivo
Method: TNK1 upregulation is reported to play a role in the pathogenic process of intestinal barrier disruption in a transgenic mice model of increased TNK1 expression/activation (PMID: 30320600). Therefore, the efficacy of the compound of structural formula I was evaluated in germline mutant mouse model of intestinal neoplasia and cachexia, Apc^Min+/− model, which is also known to induce gut barrier dysfunction (PMID: 21914473). Apc^Min+/− mice are reported to start the development of tumors at approximately 4 weeks of age. Twenty female Apc^Min+/− mice (JAX Stock No: 002020) were enrolled in the study at the age of 10 weeks. Randomization was done based on the body weight, and animals were divided into four treatment groups (5 mice/group). […] Celecoxib is a COX-2 inhibitor, and was used as a positive control because it has been reported to prevent and regress adenomas in APC model (PMID: 11016626). Mice were sacrificed 2 hours after the last dose of total 10 weeks of dosing (71 days), at the age of 20 weeks. After dosing started, the animals were checked daily for morbidity and mortality.

Row | SMILES | S: solubility ([1]; FaSSIF, 1 hr) [µg/mL] | pH: final pH ([1]; FaSSIF, 1 hr) | S: solubility ([1]; FaSSIF, 4 hrs) [µg/mL] | pH: final pH ([1]; FaSSIF, 4 hrs) | S: solubility ([1]; FaSSIF, 24 hrs) [µg/mL] | pH: final pH ([1]; FaSSIF, 24 hrs) | S: solubility ([1]; H2O, 1 hr) [µg/mL] | pH: final pH ([1]; H2O, 1 hr) | S: solubility ([1]; H2O, 4 hrs) [µg/mL] | pH: final pH ([1]; H2O, 4 hrs) | S: solubility ([1]; H2O, 24 hrs) [µg/mL] | pH: final pH ([1]; H2O, 24 hrs) | pH: final pH ([1]; SGF, 1 hr) | pH: final pH ([1]; SGF, 4 hrs) | pH: final pH ([1]; SGF, 24 hrs) | Purity (area %) after storage ([2]; 25° C./60% RH) [area %] | Hygroscopicity (%), water uptake [3] [%] | Form Change after DVS [3] | Kinetic solubility in SGF (in words) ([1]; SGF) | Stress stability / solid-state physical and chemical stability (in words) [2] | further results
1 | COc1cc(N2CCN(C)CC2)c(Cl)cc1Nc1ncc(Cl)c(Nc2cccnc2N2CCCC2=O)n1 [Freebase Type E+F] | 170 | 6.6 | 180 | 5.6 | 110 | 6.5 | 1.2 | 8.8 | 1.2 | 8.6 | 2.4 | 8.4 | 5.4 | 5.4 | 6.2 | 98.64 | 1.55 | No form change | relatively high solubility | good physical and chemical stability; also recorded: good physicochemical stability | FC: form change ([1]; FaSSIF, 1 hr): Yes; FC: form change ([1]; FaSSIF, 4 hrs): Yes; FC: form change ([1]; FaSSIF, 24 hrs): Yes; FC: form change ([1]; H2O, 1 hr): Yes; FC: form change ([1]; H2O, 4 hrs): Yes; FC: form change ([1]; H2O, 24 hrs): Yes; solubility at 1 h ([1]; SGF, 37 °C, simulated gastric fluid, thermodynamic from solid, SGF, 1 hr, read-out: S: solubility): 7100 µg/mL (≈ 13.1 mM); solubility at 4 h ([1]; SGF, 37 °C, simulated gastric fluid, thermodynamic from solid, SGF, 4 hrs, read-out: S: solubility): 7200 µg/mL (≈ 13.2 mM); solubility at 24 h ([1]; SGF, 37 °C, simulated gastric fluid, thermodynamic from solid, SGF, 24 hrs, read-out: S: solubility): 7200 µg/mL (≈ 13.2 mM); FC: form change ([1]; SGF, 1 hr): Yes; FC: form change ([1]; SGF, 4 hrs): Yes; FC: form change ([1]; SGF, 24 hrs): Yes; Kinetic solubility in SGF (in words) ([1]; SGF, listed as Freebase Type E + F): showed relatively high solubility in SGF at 37 °C L-Malate; form after kinetic solubility test ([1]; all the three media (water, SGF, FaSSIF)): turned to Freebase Type E; Purity vs Initial (%) ([2]; 25° C./60% RH): 100.0%; Purity (area %) after storage ([2]; 40° C./75% RH): 98.75 area %; Purity vs Initial (%) ([2]; 40° C./75% RH): 100.1%; Hygroscopicity (%), water uptake ([3]; listed as Freebase Type E + F): hygroscopic (1.55) %; Form Change after DVS ([3]; listed as Freebase Type E + F): No; Hygroscopicity (class) ([3]; based on water uptake at 25° C./80% RH): slightly hygroscopic (slightly hygroscopic - 0.2~2%)
2 | COc1cc(N2CCN(C)CC2)c(Cl)cc1Nc1ncc(Cl)c(Nc2cccnc2N2CCCC2=O)n1 [L-Malate Type B] | 7200 | 5.0 | 6900 | 4.9 | 7400 | 4.9 | 7100 | 4.0 | 7200 | 4.0 | 6700 | 4.1 | 3.2 | 3.1 | 3.2 | 98.97 | 3.00 | No form change and No | showed relatively high solubility in SGF at 37 °C L-Malate | good physical and chemical stability; also recorded: good physicochemical stability | Kinetic solubility in FaSSIF (in words) ([1]; FaSSIF, compared with Mesylate Type A and Freebase Type E+F): Type B showed much higher solubility than Mesylate Type A; S: solubility ([1]; SGF, 1 hr): 7600 µg/mL; S: solubility ([1]; SGF, 4 hrs): 7700 µg/mL; S: solubility ([1]; SGF, 24 hrs): 6900 µg/mL; Kinetic solubility in water (in words) [1]: increased solubility; Purity vs Initial (%) ([2]; 25° C./60% RH): 100.0%; Purity (area %) after storage ([2]; 40° C./75% RH): 98.96 area %; Purity vs Initial (%) ([2]; 40° C./75% RH): 100.0%
3 | Cc1ccc(-c2cc(C(F)(F)F)nn2-c2ccc(S(N)(=O)=O)cc2)cc1 [celecoxib, reference compound] | – | – | – | – | – | – | – | – | – | – | – | – | – | – | – | – | – | – | – | – | reduction of spleen size compared to vehicle ([4]; 120 mg/kg): approximately 26%; decrease in number of polyps in the intestine compared to vehicle ([4]; 120 mg/kg once daily oral gavage, 10 weeks, female Apc^Min+/− mice): approximately 90%

The next lines start with results.

Row | S: solubility ([1]; FaSSIF, 1 hr) [µg/mL] | pH: final pH ([1]; FaSSIF, 1 hr) | S: solubility ([1]; FaSSIF, 4 hrs) [µg/mL] | pH: final pH ([1]; FaSSIF, 4 hrs) | S: solubility ([1]; FaSSIF, 24 hrs) [µg/mL] | pH: final pH ([1]; FaSSIF, 24 hrs) | S: solubility ([1]; H2O, 1 hr) [µg/mL] | pH: final pH ([1]; H2O, 1 hr) | S: solubility ([1]; H2O, 4 hrs) [µg/mL] | pH: final pH ([1]; H2O, 4 hrs) | S: solubility ([1]; H2O, 24 hrs) [µg/mL] | pH: final pH ([1]; H2O, 24 hrs) | pH: final pH ([1]; SGF, 1 hr) | pH: final pH ([1]; SGF, 4 hrs) | pH: final pH ([1]; SGF, 24 hrs) | Purity (area %) after storage ([2]; 25° C./60% RH) [area %] | Hygroscopicity (%), water uptake [3] [%] | Form Change after DVS [3] | SMILES | Kinetic solubility in SGF (in words) ([1]; SGF) | Stress stability / solid-state physical and chemical stability (in words) [2] | further results
4 | 370 | 6.4 | 360 | 6.3 | 340 | 6.2 | 7500 | 6.1 | 7500 | 6.2 | 7400 | 6.0 | 2.5 | 2.6 | 2.5 | 99.31 | 2.74 | No form change and No | COc1cc(N2CCN(C)CC2)c(Cl)cc1Nc1ncc(Cl)c(Nc2cccnc2N2CCCC2=O)n1 [Mesylate Type A] | showed relatively high solubility in SGF at 37 °C L-Malate | good physical and chemical stability; also recorded: good physicochemical stability; also recorded: good physiochemical stability | FC: form change ([1]; FaSSIF, 1 hr): new form with low crystallinity and Yes; FC: form change ([1]; FaSSIF, 4 hrs): Yes; FC: form change ([1]; FaSSIF, 24 hrs): Yes; S: solubility ([1]; SGF, 1 hr): 8200 µg/mL; S: solubility ([1]; SGF, 4 hrs): 8000 µg/mL; S: solubility ([1]; SGF, 24 hrs): 7400 µg/mL; Kinetic solubility in water (in words) [1]: increased solubility; Purity vs Initial (%) ([2]; 25° C./60% RH): 100.1%; Purity (area %) after storage ([2]; 40° C./75% RH): 99.43 area %; Purity vs Initial (%) ([2]; 40° C./75% RH): 100.2%
5 | – | – | – | – | – | – | – | – | – | – | – | – | – | – | – | – | 8.22 | No form change | COc1cc(N2CCN(C)CC2)c(Cl)cc1Nc1ncc(Cl)c(Nc2cccnc2N2CCCC2=O)n1 [Succinate Type B] | – | – | –
